Assays:
Assay in all cases: NCI single dose screening (10 µM)
Format in all cases: cell-based
786-0 = conditions: Homo sapiens, 786-0, read-out: GI% (cell growth inhibition percentage)
HT-29 = conditions: Homo sapiens, HT-29, read-out: GI% (cell growth inhibition percentage)
HS 578 T = conditions: Homo sapiens, Hs-578T, read-out: GI% (cell growth inhibition percentage)
SK-MEL-28 = conditions: Homo sapiens, SK-MEL-28, read-out: GI% (cell growth inhibition percentage)
CAKI-1 = conditions: Homo sapiens, CAKI-1, read-out: GI% (cell growth inhibition percentage)
M14 = conditions: Homo sapiens, M14, read-out: GI% (cell growth inhibition percentage)
SW-620 = conditions: Homo sapiens, SW-620, read-out: GI% (cell growth inhibition percentage)
DU-145 = conditions: Homo sapiens, DU-145, read-out: GI% (cell growth inhibition percentage)
MALME-3M = conditions: Homo sapiens, Malme-3M, read-out: GI% (cell growth inhibition percentage)
NCI-H460 = conditions: Homo sapiens, NCI-H460, read-out: GI% (cell growth inhibition percentage)
TK-10 = conditions: Homo sapiens, TK-10, read-out: GI% (cell growth inhibition percentage)
SF-295 = conditions: Homo sapiens, SF-295, read-out: GI% (cell growth inhibition percentage)
ACHN = conditions: Homo sapiens, read-out: GI% (cell growth inhibition percentage)
K-562 = conditions: Homo sapiens, K562, read-out: GI% (cell growth inhibition percentage)
HL-60(TB) = conditions: Homo sapiens, HL-60, read-out: GI% (cell growth inhibition percentage)
T-47D = conditions: Homo sapiens, T47D, read-out: GI% (cell growth inhibition percentage)
A549/ATCC = conditions: Homo sapiens, A549, read-out: GI% (cell growth inhibition percentage)
U251 = conditions: Homo sapiens, U-251, read-out: GI% (cell growth inhibition percentage)
NCI-H522 = conditions: Homo sapiens, NCI-H522, read-out: GI% (cell growth inhibition percentage)
HCT-116 = conditions: Homo sapiens, HCT-116, read-out: GI% (cell growth inhibition percentage)
EKVX = conditions: Homo sapiens, read-out: GI% (cell growth inhibition percentage)
SN12C = conditions: Homo sapiens, read-out: GI% (cell growth inhibition percentage)
CCRF-CEM = conditions: Homo sapiens, read-out: GI% (cell growth inhibition percentage)
UO-31 = conditions: Homo sapiens, UO-31, read-out: GI% (cell growth inhibition percentage)
MDA-MB-468 = conditions: Homo sapiens, MDA-MB-468, read-out: GI% (cell growth inhibition percentage)
SNB-19 = conditions: Homo sapiens, SNB-19, read-out: GI% (cell growth inhibition percentage)
NCI/ADR-RES = conditions: Homo sapiens, read-out: GI% (cell growth inhibition percentage)
NCI-H23 = conditions: Homo sapiens, NCI-H23, read-out: GI% (cell growth inhibition percentage)
HCC-2998 = conditions: Homo sapiens, HCC 2998, read-out: GI% (cell growth inhibition percentage)
MOLT-4 = conditions: Homo sapiens, MOLT-4, read-out: GI% (cell growth inhibition percentage)
HCT-15 = conditions: Homo sapiens, HCT-15, read-out: GI% (cell growth inhibition percentage)
PC-3 = conditions: Homo sapiens, PC-3, read-out: GI% (cell growth inhibition percentage)

Question: `Cc1c(C(=O)N/N=C2\C(=O)N(Cc3ccccc3)c3ccccc32)oc2ccccc12` [Compound 7d] was tested. Which inhibition at 10 µM (786-0) did it give?
Answer: < 10%

Question: What about the inhibition at 10 µM (HT-29) of the same compound?
Answer: < 10%

Question: And the inhibition at 10 µM (HS 578 T)?
Answer: < 10%

Question: And the inhibition at 10 µM (SK-MEL-28)?
Answer: < 10%

Question: What about the inhibition at 10 µM (CAKI-1) of the same compound?
Answer: 19%

Question: And the inhibition at 10 µM (M14)?
Answer: < 10%

Question: What about the inhibition at 10 µM (SW-620) of the same compound?
Answer: 11.2%

Question: What about the inhibition at 10 µM (DU-145) of the same compound?
Answer: < 10%

Question: And the inhibition at 10 µM (MALME-3M)?
Answer: < 10%

Question: And the inhibition at 10 µM (NCI-H460)?
Answer: 25%

Question: And the inhibition at 10 µM (TK-10)?
Answer: < 10%

Question: And the inhibition at 10 µM (SF-295)?
Answer: < 10%

Question: What about the inhibition at 10 µM (ACHN) of the same compound?
Answer: 13.3%

Question: And the inhibition at 10 µM (K-562)?
Answer: < 10%

Question: And the inhibition at 10 µM (HL-60(TB))?
Answer: < 10%

Question: And the inhibition at 10 µM (T-47D)?
Answer: 33.3%

Question: And the inhibition at 10 µM (A549/ATCC)?
Answer: < 10%

Question: And the inhibition at 10 µM (U251)?
Answer: < 10%

Question: What about the inhibition at 10 µM (NCI-H522) of the same compound?
Answer: 21.7%

Question: And the inhibition at 10 µM (HCT-116)?
Answer: < 10%

Question: And the inhibition at 10 µM (EKVX)?
Answer: 30.2%

Question: And the inhibition at 10 µM (SN12C)?
Answer: < 10%

Question: What about the inhibition at 10 µM (CCRF-CEM) of the same compound?
Answer: < 10%

Question: And the inhibition at 10 µM (UO-31)?
Answer: 33.6%

Question: And the inhibition at 10 µM (MDA-MB-468)?
Answer: < 10%

Question: What about the inhibition at 10 µM (SNB-19) of the same compound?
Answer: 11.6%

Question: What about the inhibition at 10 µM (NCI/ADR-RES) of the same compound?
Answer: 10.2%

Question: And the inhibition at 10 µM (NCI-H23)?
Answer: 13.2%

Question: And the inhibition at 10 µM (HCC-2998)?
Answer: < 10%

Question: And the inhibition at 10 µM (MOLT-4)?
Answer: < 10%

Question: And the inhibition at 10 µM (HCT-15)?
Answer: < 10%

Question: And the inhibition at 10 µM (PC-3)?
Answer: 15.7%
